In patent US20260041640A1 (INCYCLIX BIO, LLC, priority 2023, published 2026):
Read-outs that look alike come from different tables or passages of the source.

Legend:
[1] = tested on: recurrent advanced/metastatic cancer; experiment: First-in-human clinical study: preliminary antitumor activity; format: in vivo
Protocol: Cohort 1 enrollment of 6 subjects dosed at 100 mg oral QD was completed in October of 2023.

[2] = tested on: ST4316B ER+, CDK4/6 inhibitor-resistant breast PDX model; experiment: ST4316B ER+, CDK4/6 inhibitor-resistant breast PDX model; format: in vivo, athymic nude mice
Protocol: Athymic nude, outbread homozygous (Crl:NU(NCr)-Foxnl^nu) 6-12-week-old ST4316B [HX] mice were analyzed. Tumor fragments from ST4316B were harvested from host animals and implanted into immune-deficient mice and the study initiated at a mean tumor volume of approximately 150-300 mm^3. […] Data collected from this study included animal weights, observations, and tumor dimensions. This information was used to determine agent tolerability based on weight change and gross physiologic changes; and anticancer activity based on tumor growth inhibition or regression. […]

[3] = Non-Sink Dissolution Method (gastric to intestinal transfer); format: physicochemical
Protocol: The Gastric Media comprised 0.01 N HCl (pH 2.0) at a dose of 1500 μgA/mL. Timepoints tested were 10 min and 25 min following microcentrifugation of 100 μL aliquots diluted 5× in MeOH at 18,500 g. The Intestinal Media comprised 0.5 wt % SIF in Phosphate Buffer (pH 6.5) at a dose of 500 μgA/mL. Timepoints tested were 5 min, 30 min, 45 min, 70 min, 180 min, and 24 hr (post-transfer) following microcentrifugation of 100 μL aliquots diluted 5× in MeOH at 18,500 g. Timepoints tested were 5 min, 45 min, and 24 hr (post-transfer) following ultracentrifugation of 100 μL aliquots diluted 5× in MeOH at 470,000 g. The supernatants were assayed by HPLC.

[4] = Plasma protein binding, mouse; format: in vitro ADME
Excerpt: (§1) Additionally, the whole blood-to-plasma ratio (KWB/P) in humans is 6.20, which also exceeds the other species tested (Table 7).

[5] = Toxicity and toxicokinetics studies, dog; format: in vivo, beagle dogs
Protocol: Nominal dose values and sampling times were used for calculations. Any concentration reported as BLQ (LLOQ<1.0 ng/mL) was set equal to zero. Toxicokinetic analyses included Cmax, Tmax, AUC0-24, t1/2, RA Cmax, and RA AUC0-24.
Following this, human dose exposure was simulated using a combined whole blood and plasma compartment PK model using allometry and whole blood parameter estimates for the absorption rate constants and bioavailability per animal species. Absolute dose administration was used for modeling. V1, CL, V2, and Q parameters were extrapolated to human using allometric scaling. […] Human body weight was set to 75 kg.

[6] = Plasma protein binding, human; format: in vitro ADME
Excerpt: as §1

[7] = tested on: LU5202 [small cell lung cancer (SCLC)] patient-derived xenograft (PDX) model; format: in vivo
Protocol: 8-week-old NOD/SCID female mice (n=59) were split into two cohorts. A total of 29 mice were enrolled in cohort 1 of the study. A total of 30 mice were enrolled in […] of the study. When the average tumor volume reached 150-250 mm^3, all animals were randomly allocated to the 6 different study groups using Study Log software (Table 24). Animals were monitored weekly for palpable tumors, or any changes in appearance or behavior. Once tumors were palpable, tumors were measured at least once weekly using calipers. Body weight was measured at least 2 times per week following randomization and initiation of treatment.

[8] = Plasma protein binding, dog; format: in vitro ADME
Excerpt: as §1

[9] = Organic solubility of INX-315 by visual inspection; format: physicochemical; set-up: key to Soluble at 4 wt % / Soluble at 2 wt % / Soluble at 1 wt % / Soluble at 0.5 wt % / Soluble at 0.4 wt % / Soluble at 0.25 wt %: ✓, soluble; X, insoluble
[10] = Cohort 1, 100 mg QD, 6 subjects

## NS(=O)(=O)c1ccc(Nc2ncc3cc4n(c3n2)C2(CCCCC2)C(=O)NN4)cc1 [INX-315]
[1]; [10]
  partial response (PR) subjects: 1 subjects
  progressive disease (PD) subjects: 2 subjects
  stable disease (SD) subjects: 3 subjects
[1]; Subject 101-001 (ER+/HER2− breast cancer), 100 mg QD
  response: confirmed PR
[1]; Subject 201-001, end of Cycle 2, 100 mg QD
  decrease in TL: 10%
[2]; Day 31, INX-315 100 mg/kg BID + ribociclib 50 mg/kg QD, p=0.0033
  tumor growth inhibition versus control: statistically significant tumor growth inhibition
[2]; Day 45, INX-315 100 mg/kg BID + ribociclib 50 mg/kg QD (Group 8), p<0.0002
  tumor growth inhibition percentage (TGI %): 65%
[3]; microcentrifuged (total drug), 5 min
  Non-Sink Dissolution, Micro @ 5 min: 13
[3]; microcentrifuged (total drug), 60 min
  Non-Sink Dissolution, Micro @ 60 min: 12
[3]; microcentrifuged (total drug), 180 min
  Non-Sink Dissolution, Micro @ 180 min: 13
[3]; ultracentrifuged (dissolved drug), 5 min
  Non-Sink Dissolution, Ultra @ 5 min: 13
[3]; ultracentrifuged (dissolved drug), 60 min
  Non-Sink Dissolution, Ultra @ 60 min: 12
[3]; ultracentrifuged (dissolved drug), 180 min
  Non-Sink Dissolution, Ultra @ 180 min: 12
[4]
  fraction unbound: 0.023
[5]; beagle, dog, in vivo
  Absorption rate constant (KA): 0.18 h⁻¹
[5]; dogs
  HED of the highest nonseverely toxic dose (HNSTD): 16,216 mg/day
  safety margin of 100 mg QD starting dose vs HED of HNSTD: 160 fold
[6]
  fraction unbound: 0.056
[7]; cohort 1, INX-315 100 mg/kg added to chemotherapy (cisplatin + etoposide)
  tumor growth inhibition: 70%
[7]; cohort 1, chemotherapy and INX-315
  body weight / tolerability: lost weight and did not tolerate the treatment well
[7]; cohort 1, monotherapy 100 mg/kg BID PO
  tumor growth inhibition: 62%
[7]; cohort 1, monotherapy 150 mg/kg BID PO
  tumor growth inhibition: 66%
[7]; cohort 2, INX-315 100 mg/kg added to chemotherapy
  tumor growth inhibition: 94%
[7]; cohort 2, monotherapy 100 mg/kg BID PO
  tumor growth inhibition: 70%
[7]; cohort 2, monotherapy 150 mg/kg BID PO
  tumor growth inhibition: 87%
[8]
  fraction unbound: 0.04
[9]; 1:9 DMSO:H2O
  Soluble at 0.25 wt %: X
  Soluble at 0.4 wt %: X
  Soluble at 0.5 wt %: X
  Soluble at 1 wt %: X
  Soluble at 2 wt %: X
  Soluble at 4 wt %: X
[9]; 3:1 DCM:MeOH
  Soluble at 0.25 wt %: X
  Soluble at 0.4 wt %: X
  Soluble at 0.5 wt %: X
  Soluble at 1 wt %: X
  Soluble at 2 wt %: X
  Soluble at 4 wt %: X
[9]; 4:1 ACN:H2O
  Soluble at 0.25 wt %: X
  Soluble at 0.4 wt %: X
  Soluble at 0.5 wt %: X
  Soluble at 1 wt %: X
  Soluble at 2 wt %: X
  Soluble at 4 wt %: X
[9]; 4:1 THF:H2O
  Soluble at 0.25 wt %: ✓
  Soluble at 0.4 wt %: ✓
  Soluble at 0.5 wt %: ✓
  Soluble at 1 wt %: ✓
  Soluble at 2 wt %: ✓
  Soluble at 4 wt %: ✓
[9]; 5:1 DCM:H2O
  Soluble at 0.25 wt %: X
  Soluble at 0.4 wt %: X
  Soluble at 0.5 wt %: X
  Soluble at 1 wt %: X
  Soluble at 2 wt %: X
  Soluble at 4 wt %: X
[9]; 8:2 Acetone:H2O
  Soluble at 0.25 wt %: ✓
  Soluble at 0.4 wt %: ✓
  Soluble at 0.5 wt %: X
  Soluble at 1 wt %: X
  Soluble at 2 wt %: X
  Soluble at 4 wt %: X
[9]; 9:1 ACN:H2O
  Organic solubility (soluble up to): up to 0.5 wt %
  Soluble at 0.25 wt %: ✓
  Soluble at 0.4 wt %: ✓
  Soluble at 0.5 wt %: ✓
  Soluble at 1 wt %: X
  Soluble at 2 wt %: X
  Soluble at 4 wt %: X
[9]; 9:1 Acetone:H2O
  Soluble at 0.25 wt %: ✓
  Soluble at 0.4 wt %: ✓
  Soluble at 0.5 wt %: X
  Soluble at 1 wt %: X
  Soluble at 2 wt %: X
  Soluble at 4 wt %: X
[9]; Acetone
  Organic solubility (soluble up to): up to 0.5 wt %
  Soluble at 0.25 wt %: ✓
  Soluble at 0.4 wt %: ✓
  Soluble at 0.5 wt %: ✓
  Soluble at 1 wt %: X
  Soluble at 2 wt %: X
  Soluble at 4 wt %: X
[9]; Methanol
  Soluble at 0.25 wt %: ✓
  Soluble at 0.4 wt %: X
  Soluble at 0.5 wt %: X
  Soluble at 1 wt %: X
  Soluble at 2 wt %: X
  Soluble at 4 wt %: X
